Key:
HCT-8 = assay: Cytotoxicity against human HCT8 cells; format: functional, cell-based
KB [1] = assay: Cytotoxicity against human KB cells; format: functional, cell-based
KB [2] = assay: Cytotoxicity against human KB cells at 10 ug/ml; format: functional

Compound: CCCCCCCCCCCC[C@@H](O)[C@H]1CC[C@H]([C@H](O)CCCCCCCCCC[C@@H](O)CC2=CC(C)(O)OC2=O)O1 (mixture of isomers)
- IC50 (HCT-8): < 10 µg/mL
- IC50 (KB [1]): < 1 µg/mL

Compound: CCCCCCCCCCCCCC[C@H](O)[C@@H](O)CC[C@H](O)[C@@H]1CC[C@@H](CCCCC[C@@H](O)CC2=CC(C)(O)OC2=O)O1 (mixture of isomers) [DONNAIENIN B/34-EPI-DONNAIENIN B]
- inhibition at 10 µg/mL (KB [2]): 53.8%

— ChEMBL document CHEMBL1145692, “New Type of Mono-tetrahydrofuran Ring Acetogenins from Goniothalamus donnaiensis” (J Nat Prod, 1997)
